# Test results: US5462956A, “Epibatidine and derivatives, compositions and methods of treating pain” (priority 1994, dated 1995)
# Legend:
# mice = system: mice
# Protocol: The Straub-tail reaction was assayed by a standard procedure [Aceto, M. D., et. al., Brit. J. Pharmacol. 36, 225-239, 1969].
# NIH mice = test: hot plate analgesia assay (Eddy and Leimbach), with and without naloxone; type: in vivo, mouse; conditions: for ED50 Dose for Hot Plate Analgesia: mice, sc, hot plate 55° C., reaction times over 60 min
# Protocol: 107, 385-393, 1953]. NIH mice were dropped onto a hot plate maintained at 55° C. and the reaction time was determined. The criterion for a reaction was kicking the hind leg, attempting to jump out, or shaking a foot and turning and licking it. Reaction time for each mouse was determined at least twice before and 5, 10, 20, 30, 45 and 60 min after administration of compound.
# [1] = Nilsen assay of analgetic activity; conditions: in vivo
# [2] = system: dihydromorphine binding sites; test: binding to dihydromorphine binding sites in rodent brain membranes (background statement)
# opioid-binding sites = opioid-binding sites (Cavia porcellus, UniProt A0ACM8Q262); conditions: 1 nM [3H]dihydromorphine, guinea pig cerebral tissue
# Chain of opioid-binding sites (A0ACM8Q262 1-400): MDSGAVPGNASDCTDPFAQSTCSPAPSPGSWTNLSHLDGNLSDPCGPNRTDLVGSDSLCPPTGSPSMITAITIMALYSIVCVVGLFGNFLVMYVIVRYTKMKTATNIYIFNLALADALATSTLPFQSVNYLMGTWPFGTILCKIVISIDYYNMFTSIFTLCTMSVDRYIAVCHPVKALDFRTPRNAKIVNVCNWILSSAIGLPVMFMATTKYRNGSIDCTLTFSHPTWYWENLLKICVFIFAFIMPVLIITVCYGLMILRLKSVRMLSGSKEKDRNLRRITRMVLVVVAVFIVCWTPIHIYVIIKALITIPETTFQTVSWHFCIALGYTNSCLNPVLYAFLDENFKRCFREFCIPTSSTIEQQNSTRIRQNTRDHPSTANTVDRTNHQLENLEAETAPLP
# Protocol: Briefly, cerebral tissue from brains of male Hartley guinea pigs was homogenized in 10 volumes of ice-cold 50 mM Tris-HCl buffer (pH 7.4) for 20 sec. in a Polytron homogenizer at 3000 rpm. After centrifugation at 18,000 G for 10 min., the pellet was reconstructed to the same volume in Tris buffer. […] Samples were chilled to 0° and filtered through glass fiber filters, followed by two washes with 5 ml of ice cold Tris buffer. Radioactivity retained on the filter was determined with a liquid scintillation counter. Nonspecific binding of [^3 H]dihydromorphine was determined in the presence of 100 nM naloxone.
SMILES,"dose required for a greater than 45° arch of tail (Straub-tail reaction) (mice; mouse, in vivo, sc) [mg/kg]",ED50 Dose for Hot Plate Analgesia (NIH mice) [mg/kg],"Straub-tail reaction elicited by isolated alkaloid (mice; column fractions 108-111, mice)","Straub-tail response (mice; mice, at higher doses for epibatidine (background statement))","dose that elicited a comparable Straub-tail reaction (mice; mouse, in vivo) [mg/kg]","effect of naloxone on the Straub-tail reaction (mice; mouse, in vivo)",blockade of the Straub-tail response by naloxone (background statement) (mice; opioid-antagonist naloxone),Analgetic activity in the Nilsen assay [1],antagonism of the analgesia by the opioid antagonist naloxone (background statement) (NIH mice; naloxone),Effect of Naloxone (on analgesia) (NIH mice; naloxone 5 mg/kg sc),potency relative to morphine in a standard analgetic test (NIH mice; subcutaneously to mice),affinity for dihydromorphine binding sites [2],activity at opioid-binding sites in words (opioid-binding sites),"IC50 (opioid-binding sites; 30 min, 25°, pH 7.4) [µM]"
"CN1CC[C@]23c4c5ccc(O)c4O[C@H]2[C@@H](O)C=C[C@H]3[C@H]1C5 [Morphine, reference compound]",10,1,–,–,–,–,–,–,–,–,–,–,–,–
Clc1ccc(C2CC3CCC2N3)cn1 (stereo not drawn) [Epibatidine],–,0.005,elicited the Straub-tail reaction in mice,marked Straub-tail response,0.02,only slightly reduced the Straub-tail reaction,not blocked,Analgetic activity also was apparent,not antagonized,No effect,two-hundred fold more potent than morphine,very low affinity,nearly inactive,8.8
